Results from ChEMBL document CHEMBL1201862, “PubChem BioAssay data set” (2004).
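Exposure lasted 48 hours, with cells grown in 96-well plates and compounds tested at five concentrations. GI50: concentration for 50% inhibition of growth.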 The source made the active and inactive calls. Cut-off read from the data, not from the text of the source: active = GI50 up to about 1.1 µM and inactive = higher.

Legend:
Assay in all cases: DTP human tumour cell line panel, 48 h
[1] = tested on: SF-539
[2] = tested on: MCF7
[3] = tested on: HOP-92
[4] = tested on: OVCAR-8
[5] = tested on: BT-549
[6] = tested on: SK-MEL-28
[7] = tested on: EKVX
[8] = tested on: SK-OV-3
[9] = tested on: COLO 205
[10] = tested on: NCI-H226
[11] = tested on: SK-MEL-5
[12] = tested on: SNB-19
[13] = tested on: LOX IMVI
[14] = tested on: MDA-MB-231
[15] = tested on: K562
[16] = tested on: SF-268
[17] = tested on: MDA-N
[18] = tested on: A498
[19] = tested on: DLD-1
[20] = tested on: DMS-114

| Structure (SMILES) | GI50 [1] | GI50 [2] | GI50 [3] | GI50 [4] | GI50 [5] | GI50 [6] | GI50 [7] | GI50 [8] | GI50 [9] | GI50 [10] | GI50 [11] | GI50 [12] | GI50 [13] | GI50 [14] | GI50 [15] | GI50 [16] | GI50 [17] | GI50 [18] | GI50 [19] | GI50 [20] |
| --- | --- | --- | --- | --- | --- | --- | --- | --- | --- | --- | --- | --- | --- | --- | --- | --- | --- | --- | --- | --- |
| Cc1cccc(C)c1NC(=O)Nc1ccc(S(N)(=O)=O)cc1 | > 100 µM (inactive) | > 100 µM (inactive) | > 100 µM (inactive) | > 100 µM (inactive) | > 100 µM (inactive) | > 100 µM (inactive) | > 100 µM (inactive) | > 100 µM (inactive) | > 100 µM (inactive) | > 100 µM (inactive) | > 100 µM (inactive) | > 100 µM (inactive) | > 100 µM (inactive) | > 100 µM (inactive) | > 100 µM (inactive) | > 100 µM (inactive) | > 100 µM (inactive) | > 100 µM (inactive) | – | – |
| Cc1ccc(S(=O)(=O)NC(=O)OC23COCN2COC3)cc1 | > 100 µM (inactive) | 91 µM (inactive) | > 100 µM (inactive) | > 100 µM (inactive) | > 100 µM (inactive) | > 100 µM (inactive) | > 100 µM (inactive) | > 100 µM (inactive) | > 100 µM (inactive) | > 100 µM (inactive) | > 100 µM (inactive) | > 100 µM (inactive) | > 100 µM (inactive) | > 100 µM (inactive) | > 100 µM (inactive) | > 100 µM (inactive) | > 100 µM (inactive) | > 100 µM (inactive) | – | – |
| Cc1ccc2c3c1[C@@H]1O[C@@H]1c1cccc(c1-3)[C@@H]1O[C@H]21 | – | 4.66 µM (inactive) | 18.1 µM (inactive) | 11.5 µM (inactive) | 17.9 µM (inactive) | 10.2 µM (inactive) | 16.1 µM (inactive) | 26.7 µM (inactive) | 15.8 µM (inactive) | 28.2 µM (inactive) | 15 µM (inactive) | 19.8 µM (inactive) | 2.4 µM (inactive) | 18 µM (inactive) | 4.29 µM (inactive) | 12.8 µM (inactive) | 14.4 µM (inactive) | 19.1 µM (inactive) | – | – |
| O=C(OCc1ccccc1)OOC(=O)OCc1ccccc1 | > 100 µM (inactive) | – | > 100 µM (inactive) | – | – | > 100 µM (inactive) | > 100 µM (inactive) | > 100 µM (inactive) | > 100 µM (inactive) | – | > 100 µM (inactive) | > 100 µM (inactive) | – | – | > 100 µM (inactive) | > 100 µM (inactive) | – | > 100 µM (inactive) | > 100 µM (inactive) | > 100 µM (inactive) |
| CC[C@H]1CN2CCc3cc(OC)c(OC)cc3[C@@H]2C[C@@H]1C[C@H]1NCCc2cc(O)c(OC)cc21 | 0.0308 µM (active) | 0.025 µM (active) | – | 0.025 µM (active) | – | 0.041 µM (active) | 0.025 µM (active) | 0.0562 µM (active) | – | – | 0.0592 µM (active) | 0.025 µM (active) | – | – | 0.025 µM (active) | 0.0557 µM (active) | – | – | 0.0277 µM (active) | 0.025 µM (active) |
| COC(=O)C(Cc1ccc(N(C)C)cc1)(NC(=O)c1ccccc1)P(=O)(OC)OC (configuration not stated) | > 100 µM (inactive) | – | > 100 µM (inactive) | > 100 µM (inactive) | – | > 100 µM (inactive) | > 100 µM (inactive) | > 100 µM (inactive) | > 100 µM (inactive) | > 100 µM (inactive) | > 100 µM (inactive) | > 100 µM (inactive) | > 100 µM (inactive) | – | > 100 µM (inactive) | > 100 µM (inactive) | – | > 100 µM (inactive) | – | > 100 µM (inactive) |
| COc1ccc(C(=C2C(=O)N(c3ccccc3)C(=O)C2=C(C)C)c2ccc(OC)cc2)cc1 | 2.99 µM (inactive) | 3.44 µM (inactive) | 10.3 µM (inactive) | 8.41 µM (inactive) | 12.4 µM (inactive) | 3.09 µM (inactive) | 2.94 µM (inactive) | 4.79 µM (inactive) | 2.96 µM (inactive) | 4.56 µM (inactive) | 4.61 µM (inactive) | 4.07 µM (inactive) | 3.72 µM (inactive) | 5.09 µM (inactive) | 3.27 µM (inactive) | 9.95 µM (inactive) | 1.7 µM (inactive) | 2.94 µM (inactive) | – | – |
| O=C1C=C/C(=C/[C@H]2SSC=C[C@]23C=CC(=O)C3)C1 | 12.2 µM (inactive) | 5.79 µM (inactive) | 20.6 µM (inactive) | 25.9 µM (inactive) | 18.9 µM (inactive) | 18.9 µM (inactive) | 17.5 µM (inactive) | 49.7 µM (inactive) | 13 µM (inactive) | 6.41 µM (inactive) | 16.9 µM (inactive) | 36.1 µM (inactive) | 10.3 µM (inactive) | 28.1 µM (inactive) | 5.3 µM (inactive) | 26.5 µM (inactive) | 17.5 µM (inactive) | 17.6 µM (inactive) | – | – |
| COc1cccc(N2C(=O)CSC2c2cccc(Oc3ccccc3)c2)c1 (configuration not stated) | 4.27 µM (inactive) | 2.48 µM (inactive) | 6.21 µM (inactive) | 8.69 µM (inactive) | 12.3 µM (inactive) | 19 µM (inactive) | 13.8 µM (inactive) | 16.1 µM (inactive) | 3.37 µM (inactive) | 8.32 µM (inactive) | 4.36 µM (inactive) | 8.41 µM (inactive) | 6.87 µM (inactive) | 7.78 µM (inactive) | 3.42 µM (inactive) | 6.79 µM (inactive) | 1.89 µM (inactive) | 3.94 µM (inactive) | – | – |
| C=CCc1cccc2cc(C(=O)Nc3ccc(C)cc3)c(=N)oc12 | – | > 100 µM (inactive) | > 100 µM (inactive) | > 100 µM (inactive) | > 100 µM (inactive) | > 100 µM (inactive) | > 100 µM (inactive) | > 100 µM (inactive) | > 100 µM (inactive) | 33.9 µM (inactive) | > 100 µM (inactive) | > 100 µM (inactive) | > 100 µM (inactive) | > 100 µM (inactive) | > 100 µM (inactive) | > 100 µM (inactive) | > 100 µM (inactive) | > 100 µM (inactive) | – | – |
| CCCCCCSc1nc(N)nc2nc[nH]c12 | 35.3 µM (inactive) | 30.5 µM (inactive) | 28.8 µM (inactive) | 42.5 µM (inactive) | – | 59.3 µM (inactive) | 60.1 µM (inactive) | 28.8 µM (inactive) | 38.9 µM (inactive) | 32.1 µM (inactive) | 20.3 µM (inactive) | 39.4 µM (inactive) | 26.1 µM (inactive) | – | 32 µM (inactive) | 46.7 µM (inactive) | – | 26.9 µM (inactive) | 33.7 µM (inactive) | – |
| O=C(CC/C=C(/CS(=O)(=O)c1ccccc1)S(=O)(=O)c1ccccc1)c1ccccc1 | > 100 µM (inactive) | – | > 100 µM (inactive) | > 100 µM (inactive) | – | > 100 µM (inactive) | > 100 µM (inactive) | 44 µM (inactive) | – | > 100 µM (inactive) | > 100 µM (inactive) | > 100 µM (inactive) | > 100 µM (inactive) | – | > 100 µM (inactive) | – | – | > 100 µM (inactive) | > 100 µM (inactive) | 21.7 µM (inactive) |
| O=C1C2C3C=C4c5ccccc5N(c5ccccc5)C4(C2C(=O)N1Cc1ccccc1)C1C(=O)N(Cc2ccccc2)C(=O)C31 (configuration not stated) | > 100 µM (inactive) | – | 39.5 µM (inactive) | 39.4 µM (inactive) | – | > 100 µM (inactive) | – | – | > 100 µM (inactive) | – | – | > 100 µM (inactive) | 78.9 µM (inactive) | – | > 100 µM (inactive) | > 100 µM (inactive) | – | > 100 µM (inactive) | > 100 µM (inactive) | > 100 µM (inactive) |
| C[n+]1[se]c2ccccc2c1Cl | 19.3 µM (inactive) | – | 7.31 µM (inactive) | 45 µM (inactive) | – | 23.4 µM (inactive) | 24.1 µM (inactive) | > 89.3 µM (inactive) | > 43.9 µM (inactive) | 25.6 µM (inactive) | 16.6 µM (inactive) | > 67.8 µM (inactive) | 19.9 µM (inactive) | – | 36.4 µM (inactive) | 20.9 µM (inactive) | – | > 59.4 µM (inactive) | 25.7 µM (inactive) | 35.3 µM (inactive) |
| C=CC1(c2ccccc2Cl)N/C(=C/OCC)CO1 (configuration not stated) | > 100 µM (inactive) | – | > 100 µM (inactive) | > 100 µM (inactive) | – | > 100 µM (inactive) | > 100 µM (inactive) | > 100 µM (inactive) | 88.3 µM (inactive) | > 100 µM (inactive) | > 100 µM (inactive) | > 100 µM (inactive) | 23.5 µM (inactive) | – | > 100 µM (inactive) | > 100 µM (inactive) | – | > 100 µM (inactive) | 33.5 µM (inactive) | > 100 µM (inactive) |
| O=C(O)C(F)(F)C(F)(F)C(F)(F)C(F)(F)C(F)(F)C(F)(F)C(F)(F)C(F)(F)F | 43.2 µM (inactive) | 57 µM (inactive) | 24.9 µM (inactive) | 43.9 µM (inactive) | 49.1 µM (inactive) | > 100 µM (inactive) | 48 µM (inactive) | 29.6 µM (inactive) | 48.5 µM (inactive) | 34.2 µM (inactive) | 80 µM (inactive) | 39.6 µM (inactive) | 42.3 µM (inactive) | 46.2 µM (inactive) | 27.1 µM (inactive) | 54.7 µM (inactive) | 40.4 µM (inactive) | 38.3 µM (inactive) | – | – |
| COC(=O)C(/C(=N/NC(N)=S)C(=O)Nc1ccccc1[N+](=O)[O-])c1cnc2ccccc2n1 (configuration not stated) | > 100 µM (inactive) | – | > 100 µM (inactive) | > 100 µM (inactive) | – | > 100 µM (inactive) | > 100 µM (inactive) | > 100 µM (inactive) | > 100 µM (inactive) | > 100 µM (inactive) | > 100 µM (inactive) | > 100 µM (inactive) | > 100 µM (inactive) | – | > 100 µM (inactive) | > 100 µM (inactive) | – | > 100 µM (inactive) | > 100 µM (inactive) | > 100 µM (inactive) |
